Test results as given in patent publication US9149038B2, “4-amino-6-(heterocyclic)picolinates and 6-amino-2-(heterocyclic)pyrimidine-4-carboxylates and their use as herbicides” (Dow AgroSciences LLC, priority 2013, dated 2015).
Like-named read-outs stand apart in the source and are kept apart here.

Tests used:
Format in all cases: in vivo
[1] = tested on: Key Grass and Sedge Weeds as well as Grass Crops; experiment: Post-Emergent Test II: postemergent herbicidal activity, visual rating after 14 d (Table 8); conditions: post-emergence, 336 h; for pest or weed control at 35 g/ha: 35 g ai/ha; for pest or weed control at 70 g/ha: 70 g ai/ha; for pest or weed control at 140 g/ha: 140 g ai/ha; for pest or weed control at 280 g/ha: 280 g ai/ha
Outline: (§1)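 Scoring is visual, 0-100, at 14 d after application, comparing treated with untreated plants. Application: overhead track spray at 187 L/ha onto seedlings at 1-2 true leaves, in surfactant/crop-oil carrier.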

[2] = tested on: Key Broadleaf Weed and Crop Species; experiment: Post-Emergent Test II: postemergent herbicidal activity, visual rating after 14 d (Table 7); conditions: post-emergence, 336 h; for pest or weed control at 35 g/ha: 35 g ai/ha; for pest or weed control at 70 g/ha: 70 g ai/ha; for pest or weed control at 140 g/ha: 140 g ai/ha; for pest or weed control at 280 g/ha: 280 g ai/ha
Outline: as §1

[3] = tested on: Key Broadleaf and Grass Weed as well as Crop Species; experiment: Post-Emergent Test I: postemergent herbicidal activity, visual phytotoxicity rating 10 days after treatment (Table 5); conditions: 4 kg ai/ha; for pest or weed control at 4000 g/ha: post-emergence, 240 h, 10 days after application
Outline: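 Plants grown 8-12 d in greenhouse (16 h photoperiod, 24-29° C.) before spraying compounds in acetone-DMSO/water-isopropanol-crop oil concentrate with 0.02% Triton X-155 at roughly 4.0, 2.0, 1.0 and 0.5 kg/ha. Injury scored visually 10 days after treatment, 0 (no activity) to 100 (complete plant death).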

[4] = barnyardgrass (Echinochloa crus-galli), read-out: Visual Growth Reduction (%) 14 Days After Application ECHCG
[5] = giant foxtail (Setaria faberi), read-out: Visual Growth Reduction (%) 14 Days After Application SETFA
[6] = maize, corn (Zea mays), read-out: Visual Growth Reduction (%) 14 Days After Application ZEAMX
[7] = rice (Oryza sativa), read-out: Visual Growth Reduction (%) 14 Days After Application ORYSA
[8] = wheat, spring (Triticum aestivum), read-out: Visual Growth Reduction (%) 14 Days After Application TRZAS
[9] = yellow nutsedge (Cyperus esculentus), read-out: Visual Growth Reduction (%) 14 Days After Application CYPES
[10] = lambsquarters (Chenopodium album), read-out: Visual Growth Reduction (%) 14 Days After Application CHEAL
[11] = oilseed rape, canola (Brassica napus), read-out: Visual Growth Reduction (%) 14 Days After Application BRSNN
[12] = redroot pigweed (Amaranthus retroflexus), read-out: Visual Growth Reduction (%) 14 Days After Application AMARE
[13] = sunflower (Helianthus annuus), read-out: Visual Growth Reduction (%) 14 Days After Application HELAN
[14] = velvetleaf (Abutilon theophrasti), read-out: Visual Growth Reduction (%) 14 Days After Application ABUTH
[15] = wild poinsettia (Euphorbia heterophylla), read-out: Visual Growth Reduction (%) 14 Days After Application EPHHL

Nc1c(F)c(-c2cccc3c2OCO3)nc(C(=O)O)c1Cl [Compound 72, 4-Amino-6-(benzo[d][1,3]dioxol-4-yl)-3-chloro-5-fluoropicolinic acid]
75 to 84%: pest or weed control at 35 g/ha [2, 11] | pest or weed control at 35 g/ha [2, 14]
G (0-29): Visual Growth Reduction (%) 10 Days After Application ECHCG ([3]; barnyardgrass (Echinochloa crus-galli))
95 to 100%: pest or weed control at 35 g/ha [2, 10] | pest or weed control at 70 g/ha [2, 10] | pest or weed control at 140 g/ha [2, 10] | pest or weed control at 280 g/ha [2, 10] | pest or weed control at 70 g/ha [2, 11] | pest or weed control at 140 g/ha [2, 11] | pest or weed control at 280 g/ha [2, 11] | pest or weed control at 35 g/ha [2, 12] | pest or weed control at 70 g/ha [2, 12] | pest or weed control at 140 g/ha [2, 12] | pest or weed control at 280 g/ha [2, 12] | pest or weed control at 35 g/ha [2, 13] | pest or weed control at 70 g/ha [2, 13] | pest or weed control at 140 g/ha [2, 13] | pest or weed control at 280 g/ha [2, 13] | pest or weed control at 70 g/ha [2, 14] | pest or weed control at 140 g/ha [2, 14] | pest or weed control at 280 g/ha [2, 14] | pest or weed control at 4000 g/ha ([3]; sunflower (Helianthus annuus), read-out: Visual Growth Reduction (%) 10 Days After Application HELAN)
0 to 29%: pest or weed control at 35 g/ha [1, 4] | pest or weed control at 70 g/ha [1, 4] | pest or weed control at 140 g/ha [1, 4] | pest or weed control at 280 g/ha [1, 4] | pest or weed control at 35 g/ha [1, 5] | pest or weed control at 70 g/ha [1, 5] | pest or weed control at 140 g/ha [1, 5] | pest or weed control at 280 g/ha [1, 5] | pest or weed control at 35 g/ha [1, 6] | pest or weed control at 70 g/ha [1, 6] | pest or weed control at 140 g/ha [1, 6] | pest or weed control at 280 g/ha [1, 6] | pest or weed control at 35 g/ha [1, 7] | pest or weed control at 70 g/ha [1, 7] | pest or weed control at 140 g/ha [1, 7] | pest or weed control at 280 g/ha [1, 7] | pest or weed control at 35 g/ha [1, 8] | pest or weed control at 70 g/ha [1, 8] | pest or weed control at 140 g/ha [1, 8] | pest or weed control at 280 g/ha [1, 8] | pest or weed control at 35 g/ha [1, 9] | pest or weed control at 70 g/ha [1, 9] | pest or weed control at 140 g/ha [1, 9] | pest or weed control at 280 g/ha [1, 9] | pest or weed control at 35 g/ha [2, 15] | pest or weed control at 70 g/ha [2, 15] | pest or weed control at 140 g/ha [2, 15] | pest or weed control at 280 g/ha [2, 15] | pest or weed control at 4000 g/ha ([3]; giant foxtail (Setaria faberi), read-out: Visual Growth Reduction (%) 10 Days After Application SETFA) | pest or weed control at 4000 g/ha ([3]; ivyleaf morningglory (Ipomoea hederecea), read-out: Visual Growth Reduction (%) 10 Days After Application IPOHE) | pest or weed control at 4000 g/ha ([3]; wild oats (Avena fatua), read-out: Visual Growth Reduction (%) 10 Days After Application AVEFA)
